Measured values: paper PMC4322620 (Frontiers in Pharmacology, 2015)
Where a SMILES comes first, the peptide text is derived from it. [ ]: non-standard residue; d: D form. pGlu = O=C1CC[C@@H](C(=O)O)N1

Tests used:
[1] = target: neurotensin receptors (HT-29 cells) (Homo sapiens, UniProt P30989); format: cell-based
NTS1 (HT-29 cells) = NTS1 (HT-29 cells) (Homo sapiens, UniProt P30989); test: cell-based
Sequence of NTS1 (HT-29 cells) (P30989 whole entry, looked up): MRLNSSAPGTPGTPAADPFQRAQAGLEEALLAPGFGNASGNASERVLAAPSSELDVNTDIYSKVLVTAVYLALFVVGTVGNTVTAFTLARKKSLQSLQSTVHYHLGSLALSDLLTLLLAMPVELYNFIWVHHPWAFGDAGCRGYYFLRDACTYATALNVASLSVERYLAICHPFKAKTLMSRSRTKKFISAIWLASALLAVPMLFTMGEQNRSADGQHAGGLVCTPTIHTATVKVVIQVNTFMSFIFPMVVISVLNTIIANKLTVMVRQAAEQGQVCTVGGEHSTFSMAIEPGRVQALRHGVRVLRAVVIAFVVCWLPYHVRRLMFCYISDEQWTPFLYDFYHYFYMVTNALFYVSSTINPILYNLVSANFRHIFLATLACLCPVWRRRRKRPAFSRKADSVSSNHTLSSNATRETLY

Sequence of neurotensin receptors (HT-29 cells) (P30989 whole entry, looked up): as above

Row | SMILES | DC50 [1] [nM] | DC50/EC50 [1] | EC50 (NTS1 (HT-29 cells)) [nM]
1 | CC[C@H](C)[C@H](NC(=O)[C@H](Cc1ccc(O)cc1)NC(=O)[C@@H]1CCCN1C(=O)[C@H](CCCNC(=N)N)NC(=O)[C@H](CCCNC(=N)N)NC(=O)[C@@H]1CCCN1C(=O)[C@H](CCCCN)NC(=O)[C@H](CC(N)=O)NC(=O)[C@H](C)NC(=O)[C@H](Cc1ccc(O)cc1)NC(=O)[C@H](CC(C)C)NC(=O)[C@@H]1CCC(=O)N1)C(=O)N[C@@H](CC(C)C)C(=O)O [[A4] NT] | 11.7 ± 1.4 | 20 | 0.6 ± 0.1
2 | CC[C@H](C)[C@H](NC(=O)[C@H](Cc1ccc(O)cc1)NC(=O)[C@@H]1CCCN1C(=O)[C@H](CCCNC(=N)N)NC(=O)[C@H](CCCNC(=N)N)NC(=O)[C@@H]1CCCN1C(=O)[C@H](CCC(=O)O)NC(=O)[C@H](CC(N)=O)NC(=O)[C@H](CCC(=O)O)NC(=O)[C@H](Cc1ccc(O)cc1)NC(=O)[C@H](CC(C)C)NC(=O)[C@@H]1CCC(=O)N1)C(=O)N[C@@H](CC(C)C)C(=O)O [[E6] NT] | 57.5 ± 5.9 | 12 | 4.7 ± 1.4
3 | CC[C@H](C)[C@H](NC(=O)[C@H](Cc1ccc(O)cc1)NC(=O)[C@@H]1CCCN1C(=O)[C@H](CCCNC(=N)N)NC(=O)[C@H](CCCNC(=N)N)NC(=O)[C@@H]1CCCN1C(=O)[C@H](CCCCN)NC(=O)[C@H](CC(N)=O)NC(=O)[C@H](CCCCN)NC(=O)[C@H](Cc1ccc(O)cc1)NC(=O)[C@H](CC(C)C)NC(=O)[C@@H]1CCC(=O)N1)C(=O)N[C@@H](CC(C)C)C(=O)O [[K4] NT] | 30.5 ± 6.2 | 22 | 1.4 ± 0.1
4 | CC[C@H](C)[C@H](NC(=O)[C@H](Cc1ccc(O)cc1)NC(=O)[C@@H]1CCCN1C(=O)[C@H](CCCCN)NC(=O)[C@H](CCCCN)NC(=O)[C@@H]1CCCN1C(=O)[C@H](CCCCN)NC(=O)[C@H](CC(N)=O)NC(=O)[C@H](CCC(=O)O)NC(=O)[C@H](Cc1ccc(O)cc1)NC(=O)[C@H](CC(C)C)NC(=O)[C@@H]1CCC(=O)N1)C(=O)N[C@@H](CC(C)C)C(=O)O [[K8, K9] NT] ([pGlu]LYENKPKKPYIL-OH) | 67 ± 18.1 | 3.3 | 20.2 ± 5.2
